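GI50: concentration for 50% inhibition of growth. TGI: concentration producing complete growth inhibition.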
Legend:
Assay in all cases: NCI-60 cell line screen, 384-well format
SF-268 CNS = tested on: SF-268 CNS
TK-10 renal = tested on: TK-10 renal
NCI-H226 lung = tested on: NCI-H226 lung
786-0 renal = tested on: 786-0 renal
PC-3 prostate = tested on: PC-3 prostate
A498 renal = tested on: A498 renal
M14 melanoma = tested on: M14 melanoma
LOX IMVI melanoma = tested on: LOX IMVI melanoma
SNB-75 CNS = tested on: SNB-75 CNS
OVCAR-4 ovarian = tested on: OVCAR-4 ovarian
UO-31 renal = tested on: UO-31 renal
SK-MEL-5 melanoma = tested on: SK-MEL-5 melanoma
MOLT-4 leukemia = tested on: MOLT-4 leukemia
SF-539 CNS = tested on: SF-539 CNS
NCI-H522 lung = tested on: NCI-H522 lung
NCI-H460 NSCLC = tested on: NCI-H460 NSCLC
HCT-116 colon = tested on: HCT-116 colon
NCI-H322M lung = tested on: NCI-H322M lung
A549 NSCLC = tested on: A549 NSCLC
RPMI-8226 leukemia = tested on: RPMI-8226 leukemia
HOP-62 NSCLC = tested on: HOP-62 NSCLC
MALME-3M melanoma = tested on: MALME-3M melanoma
SK-MEL-28 melanoma = tested on: SK-MEL-28 melanoma
UACC-257 melanoma = tested on: UACC-257 melanoma
IGROV1 ovarian = tested on: IGROV1 ovarian
CCRF-CEM leukemia = tested on: CCRF-CEM leukemia
SN12C renal = tested on: SN12C renal
RXF 393 renal = tested on: RXF 393 renal

With `Cc1cc(Cl)cc(OCCn2cc(F)cn2)c1-c1nc(N)nc2c1CN(C(=O)NCC(C)(F)F)C2` the GI50 (SF-268 CNS) was 24 nM, the TGI (SF-268 CNS) was 63.2 nM and the GI50 (TK-10 renal) was 275 nM. It also gave a TGI (TK-10 renal) of 12700 nM, a GI50 (NCI-H226 lung) of 174 nM and a TGI (NCI-H226 lung) of 842 nM. It also gave a GI50 (786-0 renal) of 59.3 nM, a TGI (786-0 renal) of 5810 nM and a GI50 (PC-3 prostate) of 86.7 nM. The TGI (PC-3 prostate) was 533 nM, the GI50 (A498 renal) was 149 nM and the TGI (A498 renal) was greater than 100000 nM. It also gave a GI50 (M14 melanoma) of 40.8 nM, a TGI (M14 melanoma) greater than 100000 nM and a GI50 (LOX IMVI melanoma) of 35.7 nM. The TGI (LOX IMVI melanoma) was 129 nM, the GI50 (SNB-75 CNS) was 152 nM and the TGI (SNB-75 CNS) was 664 nM. It also gave a GI50 (OVCAR-4 ovarian) greater than 100000 nM, a TGI (OVCAR-4 ovarian) greater than 100000 nM and a GI50 (UO-31 renal) of 394 nM. For the same compound, the TGI (UO-31 renal) was 56100 nM, the GI50 (SK-MEL-5 melanoma) was 47.2 nM and the TGI (SK-MEL-5 melanoma) was greater than 100000 nM. For the same compound, the GI50 (MOLT-4 leukemia) was 17.5 nM, the TGI (MOLT-4 leukemia) was 34.7 nM and the GI50 (SF-539 CNS) was 26.1 nM. The TGI (SF-539 CNS) was 62.8 nM, the GI50 (NCI-H522 lung) was 23.9 nM and the TGI (NCI-H522 lung) was 45.7 nM. The GI50 (NCI-H460 NSCLC) was 34.2 nM, the TGI (NCI-H460 NSCLC) was 106 nM and the GI50 (HCT-116 colon) was 68.5 nM. It also gave a TGI (HCT-116 colon) of 18200 nM, a GI50 (NCI-H322M lung) of 136 nM and a TGI (NCI-H322M lung) greater than 100000 nM. For the same compound, the GI50 (A549 NSCLC) was 45.6 nM, the TGI (A549 NSCLC) was greater than 100000 nM and the GI50 (RPMI-8226 leukemia) was 57 nM. For the same compound, the TGI (RPMI-8226 leukemia) was 305 nM, the GI50 (HOP-62 NSCLC) was 65.1 nM and the TGI (HOP-62 NSCLC) was greater than 100000 nM. For the same compound, the GI50 (MALME-3M melanoma) was 30.7 nM, the TGI (MALME-3M melanoma) was 85.2 nM and the GI50 (SK-MEL-28 melanoma) was 71.5 nM. It also gave a TGI (SK-MEL-28 melanoma) greater than 100000 nM, a GI50 (UACC-257 melanoma) of 394 nM and a TGI (UACC-257 melanoma) greater than 100000 nM. It also gave a GI50 (IGROV1 ovarian) of 40.2 nM, a TGI (IGROV1 ovarian) of 443 nM and a GI50 (CCRF-CEM leukemia) of 29.1 nM. It also gave a TGI (CCRF-CEM leukemia) of 94.1 nM, a GI50 (SN12C renal) of 51.6 nM and a TGI (SN12C renal) of 316 nM. It also gave a GI50 (RXF 393 renal) of 41.3 nM.
